Laboratory results reported in BigSolDB 2.1.

O=C(Nc1ccc(Cl)cc1)Nc1ccc(Cl)c(Cl)c1
solubility (mole fraction)
Conditions	288.15 K	293.15 K	298.15 K	303.15 K	308.15 K	313.15 K	318.15 K
in ethylene glycol	4.25e-06	5.89e-06	8.3e-06	1.02e-05	1.38e-05	2.14e-05	2.64e-05
in water	1.96e-09	2.38e-09	2.85e-09	3.78e-09	5.72e-09	7.48e-09	9.28e-09
